# Data taken from US8741871B2, “Trehalose compound, method for producing same, and pharmaceutical product containing the compound” (priority 2008, dated 2014).
# Assays:
# THP-1 cells = experiment: Analysis of cytotoxicity to THP-1 cells using trypan blue; format: cell-based, human; settings: treated for 2 hours and for 24 hours; FIG. 10
# Method: The cultured THP-1 cells were transferred into a 50-ml centrifuge tube in a clean bench. The cells were then centrifuged at 1,000 rpm for 5 minutes at 20° C., and the supernatant was then removed. […] 10 μl of this cell suspension was added to a sterile Eppendorf tube, to which 990 μl of serum-free RPMI 1640 medium had previously been added, so that the solution was 100-fold diluted. The number of cells in 10 μl of the 100-fold diluted solution was counted with a blood cell counter, and the cell suspension was diluted with serum-free RPMI 1640 medium to a cell density of 1×10^7 cells/ml.
# A test compound (Example 9)/DMSO solution, or DMSO was added to 100 μl of RPMI medium to a concentration of 200 μM. Thereafter, ultrasonic wave was applied to the mixture for 5 seconds. It is to be noted that a test compound, 6-O-(2-decyldecanoyl)-α-glucose (hereinafter referred to as a “control compound B”), and TDCM were used to prepare positive controls in the same manner as described above. In addition, a negative control was prepared by adding no test compounds (vehicle). […] Subsequently, 20 μl of 0.3% trypan blue/PBS (−) was added to the reaction solution so as to suspend the reaction solution therein, and thereafter, the survival rate of the cells was immediately analyzed using a cell number measuring apparatus (CYRORECON).
# [1] = system: Welch bacillus (Type A; NTCT8237); format: in vivo; settings: 100 μg/mouse i.p. three hours before Welch bacillus 2.4×10^7 cells/mouse i.p.
# Method: As test compounds, 1 mg each of the compound synthesized by the method described in Production Example α-1 and TDCM were weighed. Emulsion solutions of the test compounds (1 mg/ml) were prepared in the same manner as described above.
# […] of Brain Heart Infusion (BHI) (Difco) powders were dissolved in 200 ml of distilled water. 40 ml of the obtained solution (hereinafter this solution is referred to as a “BHI medium”) was withdrawn with a measuring pipette, and it was then added to a 200-ml flask, followed by performing a high-pressure steam sterilization (121° C., 20 minutes). In addition, 5 ml of the BHI medium was added to two screw-top test tubes, and they were then subjected to a high-pressure steam sterilization. Moreover, a glass tube-equipped rubber plug (with a cotton plug) and a glass tube were also subjected to a high-pressure steam sterilization. In a clean bench, an appropriate amount of bacteria for preservation, which had grown on a cooked meat medium, was collected with a sterilized Pasteur pipette, and it was then inoculated on the BHI medium in the aforementioned sterilized screw-top test tube. Subsequently, it was incubated at 37° C. overnight.
# In a clean bench, bacteria that had grown in the screw-top test tube (wherein the inside of the […] in which bacteria had grown became clouded, and gas was generated) was transferred into a 200-ml Erlenmeyer flask, which contained 40 ml of BHI medium. A glass tube was inserted into the medium, so as to carry out nitrogen substitution for 10 minutes. Subsequently, the glass tube-equipped rubber plug (with a cotton plug) was equipped in the Erlenmeyer flask (since Welch bacillus generates gas, it is necessary to make an air vent), and incubation was then carried out at 37° C. for 4 to 5 hours. Thereafter, the cultured Welch bacillus was transferred into a centrifuge tube, it was then centrifuged (9000 rpm, 15 minutes), and the supernatant was then removed. 20 ml of sterilized normal saline solution was added to the precipitate, so that the bacteria were suspended therein. The suspension was centrifuged (9000 rpm, 15 minutes), and the supernatant was then removed.
# Mice (ICR, 6-week-old) were divided into three groups, and the following test was then carried out.
# An emulsion solution containing the test compound, an emulsion solution containing TDCM, or an emulsion solution alone, which was to be used as a control, was intraperitoneally administered in an amount of 100 μg/mouse to a group of four mice (100 μl/mouse, in the case of the emulsion solution alone). Three hours later, Welch bacillus (2.4×10^7 cells/mouse) was intraperitoneally administered to the mice. Thereafter, the condition of the mice was observed.
# [2] = system: Welch bacillus toxin (recombinant α-toxin); settings: in vivo, ip
# [3] = system: IL-6, TNF-α, IFN-γ in mouse plasma; experiment: Measurement of IL-6, TNF-α and IFN-γ released into peripheral blood of test compound administered mouse; settings: 100 μg/mouse intravenous, two hours later; for IL-6-releasing activity (mouse plasma IL-6 concentration) compared with TDCM: FIG. 6; for IFN-γ-releasing activity (mouse plasma IFN-γ concentration) compared with TDCM: FIG. 7
# [4] = system: Salmonella typhmurium TA98; experiment: Mutagenicity test (Ames test); settings: TA98, in the presence or absence of S9 mix; FIG. 11
compound,measurement,setting,value
"CCCCCCCCCCC(CCCCCCCC)C(=O)OC[C@H]1O[C@H](O)[C@H](O)[C@@H](O)[C@@H]1O (stereo partly drawn) [control compound B, 6-O-(2-decyldecanoyl)-α-glucose, reference compound]","cytotoxicity to THP-1 cells (survival rate, trypan blue staining)",THP-1 cells,cytotoxicity was observed
"CCCCCCCCCCCCCCC[C@@H](O)[C@@H](CCCCCCCCCCCCCC)C(=O)OC[C@H]1O[C@H](O[C@H]2O[C@H](COC(=O)[C@H](CCCCCCCCCCCCCC)[C@H](O)CCCCCCCCCCCCCCC)[C@@H](O)[C@H](O)[C@H]2O)[C@H](O)[C@@H](O)[C@@H]1O [TDCM, trehalose dicorynomycolate, reference compound]","Number of surviving mice/number of treated mice, 2 hours later",[1]; 2 hours later,4/4
same,"Number of surviving mice/number of treated mice, 6 hours later",[1]; 6 hours later,4/4
same,"Number of surviving mice/number of treated mice, 12 hours later",[1]; 12 hours later,4/4
same,"Number of surviving mice/number of treated mice, 24 hours later",[1]; 24 hours later,4/4
same,"Number of surviving mice/number of treated mice, 48 hours later",[1]; 48 hours later,4/4
same,"Number of surviving mice/number of treated mice, 2 hours later",[2],4/4
same,"Number of surviving mice/number of treated mice, 6 hours later",[2],4/4
same,"Number of surviving mice/number of treated mice, 12 hours later",[2],4/4
same,"Number of surviving mice/number of treated mice, 24 hours later",[2],2/4
same,"Number of surviving mice/number of treated mice, 48 hours later",[2],2/4
"CCCCCCCCCCCCCCC(CCCCCCCCCCCCCC)CC(=O)OCC1O[C@H](O[C@H]2OC(COC(=O)CC(CCCCCCCCCCCCCC)CCCCCCCCCCCCCC)[C@@H](O)C(O)C2O)C(O)C(O)[C@@H]1O (stereo partly drawn) [Example 14, 6,6′-bis-O-(3-tetradecylheptadecanoyl)-α,α′-trehalose]",IL-6-releasing activity (mouse plasma IL-6 concentration) compared with TDCM,[3],approximately equivalent to
same,IFN-γ-releasing activity (mouse plasma IFN-γ concentration) compared with TDCM,[3],approximately equivalent to
"CCCCCCCCCCCCCC(CCCCCCCCCCCCC)CC(=O)OCC1O[C@H](O[C@H]2OC(COC(=O)CC(CCCCCCCCCCCCC)CCCCCCCCCCCCC)[C@@H](O)C(O)C2O)C(O)C(O)[C@@H]1O (stereo partly drawn) [Example 13, 6,6′-bis-O-(3-tridecylhexadecanoyl)-α,α′-trehalose]",IL-6-releasing activity (mouse plasma IL-6 concentration) compared with TDCM,[3],approximately a half of
same,IFN-γ-releasing activity (mouse plasma IFN-γ concentration) compared with TDCM,[3],approximately a half of
"Nc1ccc2cc3ccccc3cc2c1 [2-aminoanthracene, reference compound]","mutagenicity (Ames test, number of His colonies)",[4],positive
